Results as given in the OligoGym collection.
Where “and” joins values, the source holds several entries; their conditions need not be identical. Equal values may be shown once. After the bases stand the sugars from the 5' end (letter, count) and the backbone: PS all phosphorothioate, else s phosphorothioate and o phosphodiester by linkage. Methylation of C is not given here. e = 2'-O-(2-methoxyethyl) (MOE); k = constrained ethyl (cEt); d = 2'-deoxy (DNA)

Biological target: IRF4
Details: ASO

Sequence	target mRNA inhibition (MM.1R, 1 µM)	target mRNA inhibition (SK-MEL-28, 4 µM) [%]	further results
GTTTGCCATGGTATTT (sugars k3 d10 k3, PS)	41% and 50%	–	–
TAAAACCTCATCCCCT (sugars k3 d10 k3, PS)	–	-26	–
TAAAACTGCGCTCTCT (sugars k3 d10 k3, PS)	-14%	–	–
TAAAGAATGAGGGTCA (sugars k3 d10 k3, PS)	–	45	–
TAAAGACCTTAACCAA (sugars k3 d10 k3, PS)	–	30	–
TAACTGTATGGAACCC (sugars k3 d10 k3, PS)	28%	–	–
TAAGATCCCACGAAGG (sugars k3 d10 k3, PS)	9%	–	–
TAAGGCACTACTTCCA (sugars k3 d10 k3, PS)	10%	–	–
TAATCTGTATCATGCA (sugars k3 d10 k3, PS)	22%	–	–
TAATTATGCAGAAGCT (sugars k3 d10 k3, PS)	–	-3	–
TACACCTCTTCACTAC (sugars k3 d10 k3, PS)	-18%	–	–
TACATTGAGGCATACA (sugars k3 d10 k3, PS)	–	41	–
TACCATGCATAGTGAT (sugars k3 d10 k3, PS)	–	44	–
TACTAATTCCATAGAG (sugars k3 d10 k3, PS)	–	26	–
TACTCACGAGCACCTC (sugars k3 d10 k3, PS)	–	41	–
TACTGCTTGAGGTTTT (sugars e1 k2 d9 k2 e2, PS)	6%	–	–
TACTGCTTGAGGTTTT (sugars k3 d10 k3, PS)	–	50	–
TACTGCTTGAGGTTTT (sugars kkddddddddddkeke, PS)	11%	–	–
TACTGTTACCGATGCT (sugars kkdddddddddekeke, PS)	22% and 14%	–	–
TACTTAGACATTACTA (sugars k3 d10 k3, PS)	–	39	–
TAGAGGAATGGCGGAT (sugars k3 d10 k3, PS)	–	45	–
TAGATCTGTGGTAATC (sugars k3 d10 k3, PS)	20% and 6%	–	–
TAGATTGTAGGACAGA (sugars k3 d10 k3, PS)	–	28	–
TAGCAGGGCACGCTCT (sugars k3 d10 k3, PS)	–	31	–
TAGGAAGTTTACTAAC (sugars k3 d10 k3, PS)	–	36	–

Sequence	target mRNA inhibition (MM.1R, 1 µM)	target mRNA inhibition (SK-MEL-28, 4 µM) [%]	further results
TAGGTGCTTGTTGAAT (sugars k3 d10 k3, PS)	–	50	–
TAGTAAATATCCTGTA (sugars k3 d10 k3, PS)	–	42	–
TAGTAAGTTCTAGTCG (sugars k3 d10 k3, PS)	-13%	–	–
TAGTTTTATGTTAGCC (sugars k3 d10 k3, PS)	45%	75	target mRNA inhibition (MM.1R, 0.0625 µM): 4%; target mRNA inhibition (MM.1R, 0.074 µM): -1%; target mRNA inhibition (MM.1R, 0.222 µM): 4%; target mRNA inhibition (MM.1R, 0.25 µM): 18%; target mRNA inhibition (MM.1R, 0.666 µM): 22%; target mRNA inhibition (MM.1R, 2 µM): 39%; target mRNA inhibition (MM.1R, 4 µM): 78%
TATACATTGAGGCATA (sugars k3 d10 k3, PS)	7%	–	–
TATATATGACGACTTA (sugars k3 d10 k3, PS)	–	20	–
TATCATATGCCCAATA (sugars k3 d10 k3, PS)	–	32	–
TATCATGCATACCAAA (sugars k3 d10 k3, PS)	–	58	target mRNA inhibition (MM.1R, 0.074 µM): -4%; target mRNA inhibition (MM.1R, 0.222 µM): -7%; target mRNA inhibition (MM.1R, 0.666 µM): 3%; target mRNA inhibition (MM.1R, 2 µM): 14%
TATCCATGTTGCATGG (sugars k3 d10 k3, PS)	–	61	–
TATGCCATGGACAAGT (sugars k3 d10 k3, PS)	–	19	–
TCAAACTATAATTGGC (sugars k3 d10 k3, PS)	–	74	–
TCAAAGTCATTGCTCT (sugars k4 d8 k4, PS)	–	57	target mRNA inhibition (MM.1R, 0.074 µM): -3%; target mRNA inhibition (MM.1R, 0.222 µM): 6%; target mRNA inhibition (MM.1R, 0.666 µM): 6%; target mRNA inhibition (MM.1R, 2 µM): 13%; target mRNA inhibition (SK-MEL-28, 0.185 µM): 4% and -4% and 0%
TCAAATCGACTGCCAC (sugars k3 d10 k3, PS)	–	54	–
TCAACAGCAGGTTTTG (sugars k3 d10 k3, PS)	–	41	–
TCAACCAGTTCCTCAA (sugars k3 d10 k3, PS)	-23%	–	–
TCAACCTGGAAGGATG (sugars k3 d10 k3, PS)	–	30	–
TCAACTTGTGACCCAC (sugars k3 d10 k3, PS)	14%	–	–
TCAATAATCTCCCAGC (sugars k3 d10 k3, PS)	–	55	–
TCACAAAGCGGGTTCA (sugars k3 d10 k3, PS)	–	23	–
TCACAAGCTGGGCCTT (sugars k3 d10 k3, PS)	–	30	–
TCACCTGGCAACCTGC (sugars k4 d8 k4, PS)	–	28	–
TCACGAGGTTGCCGAG (sugars k3 d10 k3, PS)	–	62	–
TCAGACTGTGCTGCTC (sugars k3 d10 k3, PS)	–	36	–
TCAGAGCTAGAACATG (sugars k3 d10 k3, PS)	–	38	–
TCAGCTCCACTGTTAA (sugars k3 d10 k3, PS)	–	73	–

Sequence	target mRNA inhibition (MM.1R, 1 µM)	target mRNA inhibition (SK-MEL-28, 4 µM) [%]	further results
TCAGGGAATCCCTTAT (sugars k3 d10 k3, PS)	4%	–	–
TCAGTTTGTGAAGCAT (sugars e1 k2 d9 k2 e2, PS)	47%	–	–
TCAGTTTGTGAAGCAT (sugars k2 d9 e3 k2, PS)	39%	–	–
TCAGTTTGTGAAGCAT (sugars kkdddddddddkdkdk, PS)	25%	–	–
TCATACCCAATAGTCT (sugars k3 d10 k3, PS)	–	52	–
TCATACCCTGGATCAC (sugars k3 d10 k3, PS)	–	43	–
TCATGATATTAGAGAC (sugars k3 d10 k3, PS)	–	35	–
TCATTTACTGTTACCG (sugars k3 d10 k3, PS)	56% and 40%	–	target mRNA inhibition (MM.1R, 0.0625 µM): 6%; target mRNA inhibition (MM.1R, 0.25 µM): 18%; target mRNA inhibition (MM.1R, 4 µM): 82%
TCCAAAGCATAGAGTC (sugars k3 d10 k3, PS)	–	53	–
TCCAAGCAATTATTCC (sugars k3 d10 k3, PS)	–	12	–
TCCACGCGCGGAGGAC (sugars k3 d10 k3, PS)	-43%	–	–
TCCACTGTTAAAGCAG (sugars k3 d10 k3, PS)	–	55	–
TCCAGATGCAGATTCC (sugars k3 d10 k3, PS)	–	46	–
TCCAGGTGGCTCAGCA (sugars k3 d10 k3, PS)	–	41	–
TCCATAGAGCCAGAGC (sugars k3 d10 k3, PS)	20%	–	–
TCCATAGATCAACATG (sugars k3 d10 k3, PS)	–	45	–
TCCCAACCCGCTTCTC (sugars k3 d10 k3, PS)	–	14	–
TCCCACGCGGGAGGCT (sugars k3 d10 k3, PS)	–	1	–
TCCCACTGGGCTTTGT (sugars k3 d10 k3, PS)	–	32	–
TCCCAGTAGATCCTGC (sugars k3 d10 k3, PS)	–	40	–
TCCCATCCAAGAGTAG (sugars k3 d10 k3, PS)	–	33	–
TCCCATCGAATCTGCC (sugars k3 d10 k3, PS)	-5%	–	–
TCCCATGGTTACTAAT (sugars k3 d10 k3, PS)	-10%	–	–
TCCCGACACGCGCCGC (sugars k3 d10 k3, PS)	-12%	–	–
TCCCGGAGGAAGTCCC (sugars k3 d10 k3, PS)	–	30	–

Sequence	target mRNA inhibition (MM.1R, 1 µM)	target mRNA inhibition (SK-MEL-28, 4 µM) [%]	further results
TCCTAACCCTGAGTAT (sugars k3 d10 k3, PS)	–	27	–
TCCTCAAAGTCATTGC (sugars k3 d10 k3, PS)	–	32	–
TCCTCAACCGCTGAAC (sugars k3 d10 k3, PS)	–	37	–
TCCTGAGACAAGTGCT (sugars k3 d10 k3, PS)	–	55	–
TCCTTAATTATGCAGA (sugars k3 d10 k3, PS)	–	44	–
TCCTTTAAACAGTGCC (sugars k3 d10 k3, PS)	–	50	–
TCCTTTAGTGTCGCCA (sugars k3 d10 k3, PS)	–	76	–
TCCTTTGGGTGCTTTC (sugars k3 d10 k3, PS)	–	32	–
TCGAATCTGCCCAAAG (sugars k3 d10 k3, PS)	23%	–	–
TCGCAGGCAGTTGTGC (sugars k3 d10 k3, PS)	–	-20	–
TCGCGCAAAGGGCAAG (sugars k3 d10 k3, PS)	-4%	–	–
TCTAACCCTAATCCTA (sugars k3 d10 k3, PS)	–	5	–
TCTACTGGAGTCAAGC (sugars k3 d10 k3, PS)	30%	–	–
TCTAGTTTGCCAATTC (sugars k3 d10 k3, PS)	–	62	–
TCTATAGTGTTCCAGG (sugars k3 d10 k3, PS)	–	80	–
TCTATAGTGTTCCAGG (sugars kkdddddddddkdkdk, PS)	50%	–	target mRNA inhibition (MM.1R, 0.074 µM): 22%; target mRNA inhibition (MM.1R, 0.222 µM): 28%; target mRNA inhibition (MM.1R, 0.666 µM): 45%; target mRNA inhibition (MM.1R, 2 µM): 72%
TCTATAGTGTTCCAGG (sugars kkdddddddddkekek, PS)	28%	–	–
TCTATAGTGTTCCAGG (sugars kkkdddddddddkeke, PS)	68%	–	target mRNA inhibition (MM.1R, 0.074 µM): 22%; target mRNA inhibition (MM.1R, 0.222 µM): 34%; target mRNA inhibition (MM.1R, 0.666 µM): 56%; target mRNA inhibition (MM.1R, 2 µM): 81%
TCTATAGTGTTCCAGG (sugars kkkddddddddkekek, PS)	13%	–	–
TCTCAGCAAAACGCAG (sugars k3 d10 k3, PS)	–	27	–
TCTCCCACACCAGCCC (sugars k3 d10 k3, PS)	–	6	–
TCTCTCCAGTTTGTTG (sugars k3 d10 k3, PS)	–	14	–
TCTGAGTAGACTTCTT (sugars k3 d10 k3, PS)	14%	–	–
TCTGAGTGAGCTTGCC (sugars k3 d10 k3, PS)	–	49	–
TCTGGCTAGCAGAGGT (sugars k3 d10 k3, PS)	26%	–	–
